Experimental data as given in patent US11279714B2, “Anti-infective compounds” (priority 2014, dated 2022).
≈ marks a conversion by molar mass, not a printed value.

Legend:
[1] = system: M. tuberculosis H37Rv expressing the green fluorescent protein (H37Rv-GFP); test: microbe, parasite or virus in culture; format: cell-based; conditions: Mycobacterium tuberculosis, H37RV, 120 h; read-out: QUM (MIC50)
[2] = system: Raw 264.7 cells infected with H37Rv-GFP; test: microbe, parasite or virus in culture; format: cell-based, M. tuberculosis; conditions: for MIC50: Mycobacterium tuberculosis, H37RV, 120 h, read-out: QIM (MIC50)

Structure (SMILES) | MIC50 [1] | MIC50 [2] | melting point | QIM (MIC50, uM) [2]
CN(C)C(=O)CC1CCN(c2nc3sc(C(=O)Nc4ccc(-c5ccc(F)nc5)cc4)cc3s2)CC1 [Compound 351] | < 1 µM | < 1 µM | – | –
COCCN(C)c1nc2sc(C(=O)Nc3ccc(-c4ccc(F)nc4)cc3)cc2s1 [Compound 271] | < 1 µM | < 1 µM | – | –
CN(C)C(=O)C1CCN(c2nc3sc(C(=O)Nc4ccc(-c5ccc(C(F)(F)F)nc5)cc4)cc3s2)CC1 [Compound 209] | < 1 µM | < 1 µM | – | –
O=C(Nc1ccc(F)cc1)c1cc2sc(NC3CCN(Cc4ccc(F)cc4)CC3)nc2s1 [Compound 314] | < 1 µM | < 1 µM | – | –
O=C(Nc1ccc(N2CCC(Oc3ccc(Cl)cc3)CC2)cc1)c1cc2sc(N3CCOCC3)nc2s1 [Compound 193] | > 20 µM | < 1 µM | – | –
Cc1nc2cc(NC(=O)c3cc4sc(N(C)CC(O)C(F)(F)F)nc4s3)ccc2o1 (centres unmarked) [Compound 261] | < 1 µM | < 1 µM | – | –
O=C(Nc1ccc2[nH]cnc2c1)c1cc2sc(N3CCOCC3)nc2s1 [Compound 113] | > 20 µM | > 20 µM | – | –
N#Cc1ccc(NC(=O)c2cc3sc(N4CCC(O)CC4)nc3s2)cc1 [Compound 133] | 1 to 20 µM (≈ 0.384 to 7.69 µg/mL) | < 1 µM | – | –
Cc1nc2cc(NC(=O)c3cc4sc(N5CCN6CCCC6C5)nc4s3)ccc2o1 (centres unmarked) [Compound 323] | < 1 µM | < 1 µM | – | –
CN1CCCC(Nc2nc3sc(C(=O)Nc4ccc(F)cc4)cc3s2)C1 (centres unmarked) [Compound 311] | > 20 µM | 1 to 20 µM (≈ 0.391 to 7.81 µg/mL) | – | –
COC(=O)c1ccc(N(C)C(=O)c2cc3nc(N4CCCCC4)sc3s2)cc1 [Compound 31] | > 20 µM | – | 178.5 °C | –
CN(C)C(=O)C1CCN(c2nc3sc(C(=O)Nc4ccc(-c5ccc(F)nc5)cc4)cc3s2)CC1 [Compound 216] | < 1 µM | < 1 µM | – | –
CS(=O)(=O)O.CS(=O)(=O)O.O=C(Nc1ccc(-c2ccc(F)cn2)cc1)c1cc2sc(NCCN3CCOCC3)nc2s1 [Compound 360] | < 1 µM | – | – | +++ (+++ indicates <1 uM)
Cc1nc2cc(NC(=O)c3cc4sc(NCCN5CCCCC5)nc4s3)ccc2o1 [Compound 297] | > 20 µM | 1 to 20 µM (≈ 0.442 to 8.83 µg/mL) | – | –
Cc1nc2cc(NC(=O)c3cc4sc(NCCN5CCOCC5)nc4s3)ccc2o1 [Compound 224] | 1 to 20 µM (≈ 0.444 to 8.87 µg/mL) | < 1 µM | – | –
CN(C)C(=O)C1CCN(c2nc3sc(C(=O)Nc4ccc(-c5ccc(F)cc5)cn4)cc3s2)CC1 [Compound 246] | 1 to 20 µM (≈ 0.51 to 10.2 µg/mL) | < 1 µM | – | –

Structure (SMILES) | MIC50 [1] | MIC50 [2] | melting point | QIM (MIC50, uM) [2]
Cc1nc2cc(NC(=O)c3cc4sc(N5CCC(NC(=O)OC(C)(C)C)CC5)nc4s3)ccc2o1 [Compound 233] | 1 to 20 µM (≈ 0.514 to 10.3 µg/mL) | < 1 µM | – | –
O=C(Nc1ccc(F)cc1)c1cc2sc(NCCN3CCOCC3)nc2s1 [Compound 302] | 1 to 20 µM (≈ 0.407 to 8.13 µg/mL) | < 1 µM | – | –
Cc1nc2cc(NC(=O)c3cc4sc(NCCC5CCOCC5)nc4s3)ccc2o1 [Compound 333] | 1 to 20 µM (≈ 0.443 to 8.85 µg/mL) | < 1 µM | – | –
CN(C)C(=O)[C@@H]1CCN(c2nc3sc(C(=O)Nc4ccc(F)cc4)cc3s2)C1 [Compound 309] | 1 to 20 µM (≈ 0.419 to 8.37 µg/mL) | < 1 µM | – | –
Cc1nc2cc(NC(=O)c3cc4sc(N5CCC(Cc6ccc(Cl)cc6)CC5)nc4s3)ccc2o1 [Compound 236] | > 20 µM | < 1 µM | – | –
COCCN(C)c1nc2sc(C(=O)Nc3ccc(-c4ccc(C)cn4)cc3)cc2s1 [Compound 262] | < 1 µM | < 1 µM | – | –
CCN(CCOC)c1nc2sc(C(=O)Nc3ccc4oc(C)nc4c3)cc2s1 [Compound 269] | > 20 µM | > 20 µM | – | –
CN(C)C(=O)C1CCN(c2nc3sc(C(=O)Nc4ccc(-c5ccc(F)cc5)nc4)cc3s2)CC1 [Compound 231] | < 1 µM | < 1 µM | – | –
COc1ccc(Cn2cc(F)c(-c3ccc(NC(=O)c4cc5sc(N6CCOCC6)nc5s4)cc3)n2)cc1 [Compound 158] | 1 to 20 µM (≈ 0.55 to 11 µg/mL) | < 1 µM | – | –
COc1ccc(NC(=O)c2cc3sc(N4CCNCC4)nc3s2)cc1 [Compound 92] | 1 to 20 µM (≈ 0.374 to 7.49 µg/mL) | 1 to 20 µM (≈ 0.374 to 7.49 µg/mL) | – | –
COC(CN(C)c1nc2sc(C(=O)Nc3ccc4oc(C)nc4c3)cc2s1)C(F)(F)F (centres unmarked) [Compound 263] | > 20 µM | > 20 µM | – | –
CN(C)C(=O)C1CCN(c2nc3sc(C(=O)Nc4ccc(-c5nn(C)cc5Cl)cc4)cc3s2)CC1 [Compound 276] | > 20 µM | < 1 µM | – | –
O=C(Nc1ccc(-c2ccc(F)nc2)cc1)c1cc2sc(N3CCN4CCCC4C3)nc2s1 (centres unmarked) [Compound 338] | < 1 µM | < 1 µM | – | –
O=C(Nc1ccc(F)cc1)c1cc2sc(NC3CCCNC3)nc2s1 (centres unmarked) [Compound 310] | > 20 µM | > 20 µM | – | –
O=C(Nc1ccc(N2CCC(C(=O)c3ccc(Cl)cc3)CC2)cc1)c1cc2sc(N3CCOCC3)nc2s1 [Compound 226] | > 20 µM | < 1 µM | – | –
